Assay results as given in ChEMBL document CHEMBL2375347, “Discovery of adamantane based highly potent HDAC inhibitors” (Bioorg Med Chem Lett, 2013).
pIC50: −log10 of the molar value.

Experiments:
U-251 = test: Cytotoxicity against human U251 cells by MTT assay; format: functional
HCT-116 = test: Cytotoxicity against human HCT116 cells by MTT assay; format: functional
[1] = Inhibition of mouse liver HDAC by fluorescence assay
NCI-H460 [2] = test: Cytotoxicity against human NCI-H460 cells by MTT assay; format: functional
Mus musculus = test: Toxicity in SCID mouse xenografted with human NCI-H460 cells assessed as loss in body weight at 5 mg/kg, ip qd for 21 days relative to control; format: organism-based; parameters: dose 5 mg/kg, route intraperitoneal; conditions: in vivo, 504 h
NCI-H460 [3] = test: Antitumor activity against human NCI-H460 cells xenografted in SCID mouse assessed as tumor growth inhibition at 5 mg/kg, ip qd for 21 days; format: functional; conditions: 504 h, route intraperitoneal, read-out: TGI
[4] = Toxicity in SCID mouse xenografted with human NCI-H460 cells; format: organism-based; conditions: in vivo

SMILES | GI50 (U-251) [nM] | GI50 (HCT-116) [nM] | pIC50 [1] | GI50 (NCI-H460 [2]) [nM] | Activity (Mus musculus) [%] | inhibition in vivo at 5 mg/kg (NCI-H460 [3]) [%] | MTD [4] [mg/kg]
O=C(/C=C/c1ccc(CNCCC2C3CC4CC(C3)CC2C4)cc1)NO (stereo unspecified) | 50 | 60 | 9.55 | 10 | – | – | –
O=C(/C=C/c1ccc(CNCC23CC4CC(CC2C4)C3)cc1)NO | 30 | 10 | 10.70 | 10 | < 10 | 45 | 7.5
O=C(/C=C/c1ccc(CNC23CC4CC(CC(C4)C2)C3)cc1)NO | 2700 | 500 | 7.15 | 2800 | – | – | –
O=C(/C=C/c1ccc(CNC(=O)CC2C3CC4CC(C3)CC2C4)cc1)NO (stereo unspecified) | 260 | 500 | 8.10 | 400 | – | – | –
COC12CC3CC(CC(NCc4ccc(/C=C/C(=O)NO)cc4)(C3)C1)C2 | 7000 | 1600 | 6.59 | 7000 | – | – | –
O=C(/C=C/c1ccc(CNC(=O)C23CC4CC(CC2C4)C3)cc1)NO | 600 | 380 | 7.60 | 350 | – | – | –
O=C(/C=C/c1ccc(CNC(=O)C23CC4CC(CC(F)(C4)C2)C3)cc1)NO | 1900 | 500 | 7.11 | 500 | – | – | –
O=C(CCCCCCC(=O)Nc1ccccc1)NO [VORINOSTAT] | 2000 | 1000 | – | 1000 | – | – | –
CCOC12CC3CC(CC(NCc4ccc(/C=C/C(=O)NO)cc4)(C3)C1)C2 | 2800 | 1000 | 6.34 | 6000 | – | – | –
CC(NCc1ccc(/C=C/C(=O)NO)cc1)C12CC3CC(CC1C3)C2 (stereo unspecified) | 50 | 30 | 10.52 | 30 | – | – | –
O=C(/C=C/c1ccc(CN2CC3CC4CC(C3)CC2C4)cc1)NO | 1700 | 1800 | 6.96 | 4900 | – | – | –
O=C(/C=C/c1ccc(CNC23CC4CC(CC(O)(C4)C2)C3)cc1)NO | 4200 | 3000 | 6.60 | 8000 | – | – | –
O=C(/C=C/c1ccc(CNC(=O)C23CC4CC(CC(C4)C2)C3)cc1)NO | 170 | 100 | 7.17 | 100 | – | – | –
O=C(/C=C/c1ccc(CNC2C3CC4CC(C3)CC2C4)cc1)NO (stereo unspecified) | 170 | 80 | 7.22 | 70 | – | – | –
O=C(/C=C/c1ccc(CNCC23CC4CC(CC(F)(C4)C2)C3)cc1)NO | 180 | 30 | 8.22 | 30 | – | – | –
O=C(/C=C/c1ccc(CNC(=O)CC23CC4CC(CC(C4)C2)C3)cc1)NO | 1600 | 1100 | 8.74 | 1300 | – | – | –
O=C(/C=C/c1ccc(CNC23CC4CC(CC(CO)(C4)C2)C3)cc1)NO | 6000 | 2800 | 6.62 | 9500 | – | – | –
O=C(/C=C/c1ccc(CNC23CC4CC(CC(Cl)(C4)C2)C3)cc1)NO | 14000 | 11000 | 7.40 | 4000 | – | – | –
O=C(/C=C/c1ccc(CNCC23CC4CC(CC(C4)C2)C3)cc1)NO | 800 | 500 | 8.96 | 300 | – | – | –
O=C(/C=C/c1ccc(CNC23CC4CC(C2)CC(c2ccccc2)(C4)C3)cc1)NO | 3200 | 2200 | 6.36 | 5000 | – | – | –
O=C(/C=C/c1ccc(CNCCC23CC4CC(CC(C4)C2)C3)cc1)NO | 1300 | 450 | 9.05 | 1100 | – | – | –
